Laboratory results: patent US20250320224A1 (DOMAIN THERAPEUTICS, priority 2022, published 2025)

Biological target: T1, human PAR-2 (hPAR-2) receptor (Homo sapiens, UniProt P55085)
T1 construct: expressed in HEK-293 cells in an endogenous manner; endogenous in cells; host or cells: HEK-293
T1 sequence (P55085 26-397): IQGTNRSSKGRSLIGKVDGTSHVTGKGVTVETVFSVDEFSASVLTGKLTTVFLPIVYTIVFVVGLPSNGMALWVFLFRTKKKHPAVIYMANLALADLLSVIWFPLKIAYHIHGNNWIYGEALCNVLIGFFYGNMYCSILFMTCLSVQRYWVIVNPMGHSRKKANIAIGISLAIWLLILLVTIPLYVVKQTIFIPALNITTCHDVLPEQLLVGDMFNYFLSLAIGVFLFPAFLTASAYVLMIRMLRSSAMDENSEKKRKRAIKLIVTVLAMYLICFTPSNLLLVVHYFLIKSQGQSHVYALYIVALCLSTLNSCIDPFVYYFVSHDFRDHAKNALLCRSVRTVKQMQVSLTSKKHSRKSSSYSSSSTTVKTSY
Assay: In vitro human PAR-2 functional antagonist activity using calcium assays
Format: cell-based
Conditions: hPAR-2 endogenously expressed in HEK-293 cells; stimulated by 2-Furoyl-LIGRLO-NH2 peptide; Fluo4AM intracellular calcium, FLIPR Tetra
Summary of the method: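 Antagonism was measured as reduced calcium response to 2-Furoyl-LIGRLO-NH2 (dosed at its 80%-of-maximum concentration), recorded for 5 min. This followed a 10 min compound pre-incubation on Fluo4AM-loaded HEK-293 cells expressing native hPAR-2. Signals were normalised to buffer and agonist-alone controls.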

Row | IC50 [nM] | Structure (SMILES)
1 | < 500 | Cc1cc(N2CCN(C(=O)c3ccc4c(n3)C3(CN4c4ccc(Cl)c(F)c4)CC(F)(F)C3)C(C)(C)C2)nc(C)c1C(=O)O [Example 89, 6-(4-(1′-(4-chloro-3-fluorophenyl)-3,3-difluoro-1′,2′-dihydrospiro[cyclobutane-1,3′-pyrrolo[3,2-b]pyridine]-5′-carbonyl)-3,3-dimethylpiperazin-1-yl)-2,4-dimethylnicotinic acid]
2 | < 500 | Cc1cc(N2CCN(C(=O)c3ccc4c(n3)C3(C=C(F)C3)CN4c3ccc(Cl)c(F)c3)C(C)(C)C2)nc(C)c1C(=O)O (stereo not shown) [Example 90, 6-(4-(1′-(4-chloro-3-fluorophenyl)-3-fluoro-1′,2′-dihydrospiro[cyclobutane-1,3′-pyrrolo[3,2-b]pyridin]-2-en-5′-carbonyl)-3,3-dimethylpiperazin-1-yl)-2,4-dimethylnicotinic acid]
3 | 500 to 10000 | CO[C@@H]1CN(C(=O)c2ccc3c(n2)C(C)(C)CN3c2ccc(Cl)c(F)c2)CC[C@H]1CC(=O)O [Example 92, 2-((3S,4S)-1-(1-(4-chloro-3-fluorophenyl)-3,3-dimethyl-2,3-dihydro-1H-pyrrolo[3,2-b]pyridine-5-carbonyl)-3-methoxypiperidin-4-yl)acetic acid]
4 | 500 to 10000 | CO[C@H]1CN(C(=O)c2ccc3c(n2)C(C)(C)CN3c2ccc(Cl)c(F)c2)CC[C@@H]1CC(=O)O [Example 94, 2-((3R,4R)-1-(1-(4-chloro-3-fluorophenyl)-3,3-dimethyl-2,3-dihydro-1H-pyrrolo[3,2-b]pyridine-5-carbonyl)-3-methoxypiperidin-4-yl)acetic acid]
5 | 500 to 10000 | CO[C@@H]1CN(C(=O)c2ccc3c(n2)C(C)(C)CN3c2ccc(Cl)c(F)c2)CC[C@@H]1CC(=O)O [Example 98, 2-((3S,4R)-1-(1-(4-chloro-3-fluorophenyl)-3,3-dimethyl-2,3-dihydro-1H-pyrrolo[3,2-b]pyridine-5-carbonyl)-3-methoxypiperidin-4-yl)acetic acid]
6 | < 500 | Cc1cc(N2CCN(C(=O)c3cnc4c(n3)C(C)(C)CN4c3ccc(Cl)c(F)c3)C(C)(C)C2)nc(C)c1C(=O)O [Example 100, 6-(4-(5-(4-chloro-3-fluorophenyl)-7,7-dimethyl-6,7-dihydro-5H-pyrrolo[2,3-b]pyrazine-2-carbonyl)-3,3-dimethylpiperazin-1-yl)-2,4-dimethylnicotinic acid]

More lines, now with the values behind:

Row | Structure (SMILES) | IC50 [nM]
7 | CC1(C)CN(c2ccc(Cl)c(F)c2)c2ccc(C(=O)N3CCN(c4nc(C(=O)N5CCOCC5)cs4)CC3(C)C)nc21 [Example 82, (1-(4-chloro-3-fluorophenyl)-3,3-dimethyl-2,3-dihydro-1H-pyrrolo[3,2-b]pyridin-5-yl)(2,2-dimethyl-4-(4-(morpholine-4-carbonyl)thiazol-2-yl)piperazin-1-yl)methanone] | < 500
8 | CC1(C)CN(c2ccc(Cl)c(F)c2)c2ccc(C(=O)N3CCN(c4nc(C(N)=O)cs4)CC3(C)C)nc21 [Example 83, 2-(4-(1-(4-chloro-3-fluorophenyl)-3,3-dimethyl-2,3-dihydro-1H-pyrrolo[3,2-b]pyridine-5-carbonyl)-3,3-dimethylpiperazin-1-yl)thiazole-4-carboxamide] | < 500
9 | Cc1ccc(N2CC(C)(C)c3nc(C(=O)N4CCN(c5cc(C)c(C(=O)O)c(C)n5)CC4(C)C)ccc32)cc1F [Example 85, 6-(4-(1-(3-fluoro-4-methylphenyl)-3,3-dimethyl-2,3-dihydro-1H-pyrrolo[3,2-b]pyridine-5-carbonyl)-3,3-dimethylpiperazin-1-yl)-2,4-dimethylnicotinic acid] | < 500
10 | Cc1cc(N2CCN(C(=O)c3ccc4c(n3)OC(C)(C)CN(c3ccc(Cl)c(F)c3)C4)C(C)(C)C2)nc(C)c1C(=O)O [Example 87, 6-(4-(4-(4-chloro-3-fluorophenyl)-2,2-dimethyl-2,3,4,5-tetrahydropyrido[3,2-f][1,4]oxazepine-8-carbonyl)-3,3-dimethylpiperazin-1-yl)-2,4-dimethylnicotinic acid] | > 10000
